These are literature values, as cited in patent US9579280B2, “Controlled release delivery system for nasal applications and method of treatment” (MATTERN PHARMA AG, priority 2003, dated 2017).

Read-outs that look alike come from different tables or passages of the source.

The subject of one series is female sexual response. The settings on record: for sexual arousal: sublingual or single vaginal dose.
The conditions of series [1]: nasal.
For series [2] the following is noted: relative to water.
Series [3] addresses T1, sex hormone binding globulin (SHBG) (Homo sapiens, UniProt P04278).
T1 sequence (P04278 30-402): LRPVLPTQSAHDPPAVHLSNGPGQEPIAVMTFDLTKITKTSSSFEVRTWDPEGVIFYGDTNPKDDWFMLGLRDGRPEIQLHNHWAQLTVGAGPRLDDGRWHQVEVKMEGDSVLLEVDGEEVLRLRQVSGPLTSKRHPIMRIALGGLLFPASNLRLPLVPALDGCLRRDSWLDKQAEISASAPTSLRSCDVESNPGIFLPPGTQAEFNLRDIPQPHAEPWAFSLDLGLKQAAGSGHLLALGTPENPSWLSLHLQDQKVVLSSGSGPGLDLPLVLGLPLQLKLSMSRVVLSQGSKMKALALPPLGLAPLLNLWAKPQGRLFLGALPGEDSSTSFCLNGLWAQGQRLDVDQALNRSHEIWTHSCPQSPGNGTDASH

Turning to `CCCCCCCCCCC(=O)O[C@H]1CC[C@H]2[C@@H]3CCC4=CC(=O)CC[C@]4(C)[C@H]3CC[C@]12C` [testosterone undecanoate], the sexual arousal entry with female sexual response was “triggers sexual arousal”.
Turning to `CCC(=O)O[C@H]1CC[C@H]2[C@@H]3CCC4=CC(=O)CC[C@]4(C)[C@H]3CC[C@]12C` [testosterone propionate], the “time of testosterone and free testosterone peak” value with female sexual response (single vaginal dose) is 5.5 h. Also, in the series on female sexual response, the sexual arousal entry is “does not trigger sexual arousal”.
For the compound `CN(C)CC(=O)O[C@H]1CC[C@H]2[C@@H]3CCC4=CC(=O)CC[C@]4(C)[C@H]3CC[C@]12C` [testosterone 17β-N,N-dimethylglycinate], in series [1], the elimination half-life entry is “about fifty-five” and the “serum levels compared with intravenous administration” value is given as “equal to intravenous administration”. In addition, the “time to peak plasma concentration” value in series [1] (25 mg dose) is “twelve”. Also, in series [1] (50 mg dose), the “time to peak plasma concentration” value is recorded as “twenty”.
As for `C[C@]12CC[C@H]3[C@@H](CCC4=CC(=O)CC[C@@]43C)[C@@H]1CC[C@@H]2O` [Testosterone, testosterone], the “solubility in vegetable oil” value in series [2] is “somewhat more soluble in vegetable oil”. Further, the “fraction of circulating plasma testosterone bound to SHBG” value in series [3] is recorded as “Approximately 40%”. Besides, the entries for the “unbound (free) fraction” value in series [3] (in men) and in series [3] (in women) were 2% and “up to 3%”, respectively.
